Measured values taken from PMC10574185, “Encapsulation and Biological Activity of Hesperetin Derivatives with HP-β-CD” (Molecules, 2023).
Values after ≈ are worked out from the molar mass of the structure shown. Values joined by “and” are separate entries in the source; they are usually repeats but may differ in a detail not shown here. Equal values may be shown once. Read-outs that look alike come from different tables or passages of the source.

What was measured:
[1] = ABTS^•+ radical cation decolorization assay; details: concentration 0.1 mg/mL, mean ± SD
Method: To evaluate the antioxidant ability of the tested systems, antioxidant analysis was performed. Antioxidants can scavenge hydroxyl radicals in two ways: by reacting directly with hydroxyl radicals (DPPH^•, ABTS^•+) or indirectly inhibiting the formation of hydroxyl radicals by chelating metal ions involved in the production of hydroxyl radicals. The antioxidant activity of the systems studied was investigated by using DPPH^• scavenging, ABTS^•+ scavenging ability, and Fe^2+-chelating ability. In this study, the antioxidant activity of pure hesperetin and its Schiff bases (HHSB, HIN, and HTSC) and HP-β-CD complexes were compared, and the positive control was Trolox.
Antioxidant activity using ABTS^•+ cation radical scavenging was determined according to a modified method. ABTS solution (2.5 mM) was mixed with 1.0 mM potassium persulfate solution and left at room temperature in the dark for 12-24 h. After this time, the absorbance of the finished ABTS^•+ solution was corrected with ethanol to 0.70 ± 0.02 at 745 nm. A total of 100 µL of the sample was reacted for 5 min with 2 mL of ABTS^•+ solution (A745 nm = 0.70 ± 0.02). The absorbance value of the reaction mixture was measured at 745 nm. […] Scavenging activity (%) = [1 − (Asample − Ablank)/Acontrol] × 100%(4) where Acontrol is the absorbance value of the control (ABTS^•+ solution with water), Ablank is the absorbance value of samples mixed with anhydrous ethanol, and Asample is the absorbance value of the added test sample to ABTS^•+ solution at 745 nm, respectively.

[2] = test system: Salmonella Choleraesuis ATCC 7001; experiment: Antagonistic activity, diffusion-well method; assay type: cell-based; details: Salmonella enterica, compounds at 2.5 µM, wells 8 mm, 37 °C, 18 h
Method: (§1) The antimicrobial activity of the HESP, ligands ([…], and HTSC), and complexes with HP-β-CD were tested against Gram-positive bacteria (Listeria monocytogenes ATCC 19111, Listeria monocytogenes ATCC 19112, Listeria monocytogenes ATCC 19115, Staphylococcus aureus ATCC 29737, Staphylococcus aureus ATCC 25923, Staphylococcus aureus ATCC 27734) and Gram-negative bacteria (Escherichia coli ATCC 11303, Escherichia coli ATCC 35218, Salmonella Typhimurium, ATCC 14028, Salmonella Enteritidis ATCC 13076, Salmonella Choleraesuis ATCC 7001). The strains were activated from cryobanks by passaging them twice onto a Nutrient Broth (Merck, Darmstadt, Germany). All bacteria were grown for 24 h at 37 °C. Antagonistic activity of the following chemical compounds: […], and […] determined by the diffusion-well method. The test strains were plated on Mueller-Hinton Agar (Merck, Darmstadt, Germany) in the form of a surface layer of bacteria according to the procedures recommended by the European Committee on Antimicrobial Susceptibility Testing EUCAST [74]. The detailed methodology was described in the paper by Sykuła et al.. Bacterial inoculum was prepared from an overnight solid culture. The inoculum density was 1-2 × 10^8 CFU/mL, which corresponds to a McFarland standard of 0.5. The samples of the test compounds were dissolved in 5% (w/w) DMSO to obtain a concentration of 500 μM, and were sterilized using filtration (filter pore width 0.2 μm; (Sartorius AG, Gottingen, Germany). The bacteria inoculum test culture (0.1 mL) smear conducted was on sterile Mueller-Hinton Agar (Merck, Darmstadt, Germany) plates. […] A total of 50 μL of the prepared solutions of the tested compounds at a concentration of 500 μM were added to the wells. The plates prepared in this way were incubated at 37 °C for 18 h. After this time, zones of growth inhibition were read and the result was given in mm. The experiment was carried out in two independent repetitions. The results were expressed in average values and standard deviation. The results were analyzed using a one-way ANOVA and post-hoc Tukey's test.

[3] = test system: Salmonella Typhimurium ATCC 14028; experiment: Antagonistic activity, diffusion-well method; assay type: cell-based; details: Salmonella enterica, compounds at 2.5 µM, wells 8 mm, 37 °C, 18 h
Method: as §1

[4] = test system: Staphylococcus aureus ATCC 27734; experiment: Antagonistic activity, diffusion-well method; assay type: cell-based; details: ATCC27734, compounds at 2.5 µM, wells 8 mm, 37 °C, 18 h
Method: as §1

[5] = test system: Listeria monocytogenes ATCC 19112; experiment: Antagonistic activity, diffusion-well method; assay type: cell-based; details: ATCC19112, compounds at 2.5 µM, wells 8 mm, 37 °C, 18 h
Method: as §1

[6] = test system: Listeria monocytogenes ATCC 19111; experiment: Antagonistic activity, diffusion-well method; assay type: cell-based; details: ATCC19111, compounds at 2.5 µM, wells 8 mm, 37 °C, 18 h
Method: as §1

[7] = test system: Salmonella Enteritidis ATCC 13076; experiment: Antagonistic activity, diffusion-well method; assay type: cell-based; details: Salmonella enterica, compounds at 2.5 µM, wells 8 mm, 37 °C, 18 h
Method: as §1

[8] = test system: Listeria monocytogenes ATCC 19115; experiment: Antagonistic activity, diffusion-well method; assay type: cell-based; details: ATCC19115, compounds at 2.5 µM, wells 8 mm, 37 °C, 18 h
Method: as §1

HaCaT cells = experiment: MTT cytotoxicity assay on HaCaT keratinocytes; assay type: cell-based, human; details: for IC50: Homo sapiens
Method: HaCaT keratinocyte cells were exposed to chemical compounds at nine different concentrations (from 3.9 to 995.6 µg/mL) in four replicates of each concentration for 24 and 48 h.
All compounds were dissolved in sterile DMSO (Merck Life Science, Warsaw, Poland) and were sterile-filtered with 0.22 µm pore size sterile disposable syringe filters.
HaCaT cell line (the normal immortalised human keratinocytes) used in the study derived from the 35th passage (the original material created by Prof. Dr. Petra Boukamp and Dr. Norbert Fusenig) was purchased from Cell Line Service GmbH (Eppelheim, Germany). The cells were cultured and propagated as described previously.
The cytotoxicity was assessed with MTT assay according to methodology applied previously.
The following final concentrations (in four replicates per experiment) of the test compounds were tested (µg/mL): 3.9; 7.8; 15.6; 31.1; 62.2; 124.5; 248.9; 497.8, and 995.6. […] Three independent experiments were conducted. The vehicle was cells in the culture medium. The assay was conducted for 24 h and 48 h.

[9] = MTT, 48 h exposure, read-out: IC50 After 48 h
[10] = MTT, 24 h exposure, read-out: IC50 After 24 h

Row | SMILES | ABTS^•+ antioxidant activity [1] [%] | zone of inhibition at 2.5 µM [2] [mm] | zone of inhibition at 2.5 µM [3] [mm] | zone of inhibition at 2.5 µM [4] [mm] | zone of inhibition at 2.5 µM [5] [mm] | zone of inhibition at 2.5 µM [6] [mm] | zone of inhibition at 2.5 µM [7] [mm] | zone of inhibition at 2.5 µM [8] [mm] | Non-cytotoxic concentration (IC0) (HaCaT cells; 48 h exposure) [µg/mL] | IC50 (HaCaT cells; [9]) [µg/mL] | cytotoxicity at the lowest concentration tested (HaCaT cells; 48 h, 3.9 µg/mL) | cytotoxicity at the highest concentration tested (HaCaT cells; 48 h, 995.6 µg/mL) | IC50 (HaCaT cells; [10]) [µg/mL] | IC70 after 48 h (HaCaT cells; MTT, 48 h exposure, IC50 impossible to count) | Non-cytotoxic concentration (IC0) (HaCaT cells; 24 h exposure) [µg/mL]
1 | COc1ccc(C2CC(=NNC(N)=S)c3c(O)cc(O)cc3O2)cc1O (stereo not drawn) [HTSC, N-[2,3-dihydro-5,7-dihydroxy-2-(3-hydroxy-4-methoxyphenyl)chromen-4-ylidene]thiosemicarbazide] | 86.61 ± 4.6 | 0 | 0 | 0 | 0 | 0 | 0 | 0 | ≤ 3.9 | 11.9 (≈ 31.7 µM) |  |  |  |  | 
2 | COc1ccc(C2C/C(=N\NC(=O)c3ccccc3)c3c(O)cc(O)cc3O2)cc1O (racemic) [HHSB] | 98.11 ± 5.0 | 0 | 0 | 0 | 0 | 0 | 0 | 0 |  |  | 54.8% ± 5.4 | 79.1% ± 6.6 | 418 (≈ 993 µM) | 163.5 µg/mL and 163.5 ^b µg/mL | 
3 | COc1ccc(C2CC(=O)c3c(O)cc(O)cc3O2)cc1O (stereo not drawn) [Hesperetin, 3′,5,7-Trihydroxy-4′-methoxyflavanone] | 77.42 ± 2.2 | 0 | 0 | 0 | 0 | 0 | 0 | 0 | ≤ 3.9 | 150 (≈ 496 µM) |  |  | 221 (≈ 731 µM) |  | 
4 | COc1ccc(C2C/C(=N\NC(=O)c3ccncc3)c3c(O)cc(O)cc3O2)cc1O (racemic) [HIN] | 31.56 ± 1.6 | 0 | 0 | 0 | 0 | 0 | 0 | 0 | ≤ 15.6 | 59.7 (≈ 142 µM) |  |  | 350 (≈ 831 µM) |  | ≤ 7.8
